Results on one compound are retold here after patent US20090005345A1, “Detoxification of Shellfish” (priority 2005, published 2009).

The test has as its system bivalves. The test is described as follows: Feed test: detoxification of DSP-toxin containing bivalves by feeding in land-based vessels, DSP by HPLC. The format is in vivo. The settings on record: Test 5; additive given separately in addition to bioprotein; 7.2° C. From the text:
Seawater from a depth of 45 metres in the Eidfjord, with a salinity of 33-34 per mille, was pumped up into a reservoir on land. The water was then passed into the test vessels. The bivalves were evenly distributed on the mesh/grating in a layer of about 10 cm in thickness. The vessel diameter is about 70 cm. In these small scale tests importance was given to ensuring that oxygen should not be a limiting factor. That is to say that there is sufficient flow-through of water to obtain approximate oxygen saturation in the outflow. The amount of water through each vessel was about 8 litres per minute.
Feeding was effected automatically batchwise throughout the day. That is to say that the daily consumption of the feed slurry according to Example 1 was filled into a tank once a day. The slurry runs from this tank to the bivalve vessel cascade via a valve. In our tests we chose to feed batchwise once an hour. Such portion feeding is important in order to obtain an even distribution to the whole bivalve population. The feed was added in the course of a few seconds. […]
In the case of all the tests, samples were taken immediately prior to the test start and after given time periods. […] The samples were analysed at the Norwegian College of Veterinary Medicine using HPLC (High Performance Liquid Chromatography).
The half-life for DSP was calculated using the following formula: […]

`O=C1O[C@H]([C@@H](O)CO)C(O)=C1O` [Vitamin C]: the “Effect on DSP half-life of additive used in addition to bioprotein” value is reported as “no effect”.
